Results from paper PMC11148080, “Ru(II)-based complexes containing 2-thiouracil derivatives suppress liver cancer stem cells by targeting NF-κB and Akt/mTOR signaling” (Cell Death Discovery, 2024).

Tests used:
[1] = test system: KG-1a; assay: Alamar Blue cytotoxicity; assay type: cell-based, human
Protocol: (§1) The Alamar Blue assay was used to measure cell viability, as previously described. Adherent cells were seeded in 96-well plates at a density of 7 × 10^3 cells per well, and suspended cells were seeded at 3 × 10^4 cells per well. Drugs were added to each well after overnight incubation for adherent cells or immediately after seeding for suspension cells, and incubation continued for an additional 72 h. The positive control included doxorubicin (Laboratorio IMA S.A.I.C., Buenos Aires, Argentina). Four hours (for cell lines) or 24 h (for primary cultures) before the end of incubation, 20 μL of resazurin (30 μM) (Sigma‒Aldrich Co. St. Louis, MO, USA) was added to each well. The absorbance at 570 and 600 nm was measured using a SpectraMax 190 microplate reader (Molecular Devices, Sunnyvale, CA, USA).

[2] = test system: U-87 MG; assay: Alamar Blue cytotoxicity; assay type: cell-based, human
Protocol: as §1

[3] = test system: DU 145; assay: Alamar Blue cytotoxicity; assay type: cell-based, human
Protocol: as §1

[4] = test system: THP-1; assay: Alamar Blue cytotoxicity; assay type: cell-based, human
Protocol: as §1

[5] = test system: SCC-9; assay: Alamar Blue cytotoxicity; assay type: cell-based, human
Protocol: as §1

[6] = test system: K-562; assay: Alamar Blue cytotoxicity; assay type: cell-based, human
Protocol: as §1

[7] = test system: OVCAR-3; assay: Alamar Blue cytotoxicity; assay type: cell-based, human
Protocol: as §1

[8] = test system: CAL 27; assay: Alamar Blue cytotoxicity; assay type: cell-based, human
Protocol: as §1

[9] = test system: MDA-MB-231; assay: Alamar Blue cytotoxicity; assay type: cell-based, human
Protocol: as §1

[10] = test system: A549; assay: Alamar Blue cytotoxicity; assay type: cell-based, human
Protocol: as §1

[11] = test system: HSC-3; assay: Alamar Blue cytotoxicity; assay type: cell-based, human
Protocol: as §1

[12] = test system: SCC4; assay: Alamar Blue cytotoxicity; assay type: cell-based, human
Protocol: as §1

[13] = test system: PANC-1; assay: Alamar Blue cytotoxicity; assay type: cell-based, human
Protocol: as §1

[14] = test system: HepG2; assay: Alamar Blue cytotoxicity; assay type: cell-based, human
Protocol: as §1

[15] = test system: MCF-7; assay: Alamar Blue cytotoxicity; assay type: cell-based, human
Protocol: as §1

[16] = test system: HCT116; assay: Alamar Blue cytotoxicity; assay type: cell-based, human
Protocol: as §1

[17] = test system: Jurkat; assay: Alamar Blue cytotoxicity; assay type: cell-based, human
Protocol: as §1

[18] = test system: A-375; assay: Alamar Blue cytotoxicity; assay type: cell-based, human
Protocol: as §1

[19] = test system: SCC-25; assay: Alamar Blue cytotoxicity; assay type: cell-based, human
Protocol: as §1

[20] = test system: NB4; assay: Alamar Blue cytotoxicity; assay type: cell-based, human
Protocol: as §1

[21] = test system: HepG2 cells; assay: DNA content assay (internucleosomal DNA fragmentation, cell cycle); assay type: cell-based, human; settings: HepG2; DOX 1 μM, positive control
Protocol: Internucleosomal DNA fragmentation and cell cycle distribution were determined by a DNA content assay. The cells were stained with PI using a solution containing 0.1% Triton X-100, 2 µg/mL PI, 0.1% sodium citrate, and 100 μg/mL RNAse (all from Sigma‒Aldrich) and incubated in the dark for 15 min at room temperature. For all flow cytometry analyses, cellular fluorescence was measured using a BD LSRFortessa cytometer, BD FACSDiva software (BD Biosciences) and FlowJo software 10 (FlowJo LLC; Ashland, OR, USA). A minimum of 10,000 events were obtained per sample for intracellular staining, and a minimum of 30,000 events per sample were acquired for cell surface protein staining. Doublets were removed using FSC-A vs FCS-H and SCC-A vs SCC-H. Cellular debris was excluded from the analysis.

[22] = test system: B16-F10; assay: Alamar Blue cytotoxicity; assay type: cell-based, mouse
Protocol: as §1

[23] = test system: HepG2 cells; assay: Annexin V-FITC/PI apoptosis detection; assay type: cell-based, human; settings: HepG2; DOX 1 μM, positive control
Protocol: For apoptosis detection, cell viability was quantified using Annexin V-FITC/PI (FITC Annexin V Apoptosis Detection Kit I, BD Biosciences, San Jose, CA, USA) according to the manufacturer’s instructions. The cells were also stained with rhodamine 123 (5 μg/mL, Sigma Aldrich Co.) for 15 min at 37 °C in the dark to assess the mitochondrial transmembrane potential. After the cells were washed, they were incubated in saline for 30 min in the dark at 37 °C and analyzed by flow cytometry. For all flow cytometry analyses, cellular fluorescence was measured using a BD LSRFortessa cytometer, BD FACSDiva software (BD Biosciences) and FlowJo software 10 (FlowJo LLC; Ashland, OR, USA). A minimum of 10,000 events were obtained per sample for intracellular staining, and a minimum of 30,000 events per sample were acquired for cell surface protein staining. Doublets were removed using FSC-A vs FCS-H and SCC-A vs SCC-H. Cellular debris was excluded from the analysis.

[24] = test system: BJ; assay: Alamar Blue cytotoxicity, noncancerous cells; assay type: cell-based, human; settings: Homo sapiens, 72 h
Protocol: as §1

[25] = test system: MRC-5; assay: Alamar Blue cytotoxicity, noncancerous cells; assay type: cell-based, human; settings: Homo sapiens, MRC5; MRC-5, 72 h
Protocol: as §1

For `COc1cccc2c1C(=O)c1c(O)c3c(c(O)c1C2=O)C[C@@](O)(C(=O)CO)C[C@@H]3O[C@H]1C[C@H](N)[C@H](O)[C@H](C)O1` [Doxorubicin], the IC50 ([1]; Homo sapiens, KG-1a, 72 h) was 70 nM, the Selectivity index ([1]; IC50 BJ/IC50 KG-1a) was 26.43 and the Selectivity index ([1]; IC50 MRC-5/IC50 KG-1a) was 24.29. For the same molecule, the Selectivity index ([1]; IC50 PBMC/IC50 KG-1a) was 19.00, the IC50 ([2]; Homo sapiens, U-87 MG, 72 h) was 520 nM and the Selectivity index ([2]; IC50 BJ/IC50 U-87 MG) was 3.56. For the same molecule, the Selectivity index ([2]; IC50 MRC-5/IC50 U-87 MG) was 3.27, the Selectivity index ([2]; IC50 PBMC/IC50 U-87 MG) was 2.56 and the IC50 ([3]; Homo sapiens, DU 145, 72 h) was 240 nM. It also gave a Selectivity index ([3]; IC50 BJ/IC50 DU 145) of 7.71, a Selectivity index ([3]; IC50 MRC-5/IC50 DU 145) of 7.08 and a Selectivity index ([3]; IC50 PBMC/IC50 DU 145) of 5.54. The IC50 ([4]; Homo sapiens, THP-1, 72 h) was 140 nM, the Selectivity index ([4]; IC50 BJ/IC50 THP-1) was 13.21 and the Selectivity index ([4]; IC50 MRC-5/IC50 THP-1) was 12.14. The Selectivity index ([4]; IC50 PBMC/IC50 THP-1) was 9.50, the IC50 ([5]; Homo sapiens, SCC-9, 72 h) was 1000 nM and the Selectivity index ([5]; IC50 BJ/IC50 SCC-9) was 1.85. For the same molecule, the Selectivity index ([5]; IC50 MRC-5/IC50 SCC-9) was 1.70, the Selectivity index ([5]; IC50 PBMC/IC50 SCC-9) was 1.33 and the IC50 ([6]; Homo sapiens, K562, K-562, 72 h) was 1650 nM. It also gave a Selectivity index ([6]; IC50 BJ/IC50 K-562) of 1.12, a Selectivity index ([6]; IC50 MRC-5/IC50 K-562) of 1.03 and a Selectivity index ([6]; IC50 PBMC/IC50 K-562) of 0.81. For the same molecule, the IC50 ([7]; Homo sapiens, OVCAR-3, 72 h) was 1060 nM, the Selectivity index ([7]; IC50 BJ/IC50 OVCAR-3) was 1.75 and the Selectivity index ([7]; IC50 MRC-5/IC50 OVCAR-3) was 1.60. The Selectivity index ([7]; IC50 PBMC/IC50 OVCAR-3) was 1.25, the IC50 ([8]; Homo sapiens, CAL 27, 72 h) was 110 nM and the Selectivity index ([8]; IC50 BJ/IC50 CAL 27) was 16.82. The Selectivity index ([8]; IC50 MRC-5/IC50 CAL 27) was 15.45, the Selectivity index ([8]; IC50 PBMC/IC50 CAL 27) was 12.09 and the IC50 ([9]; Homo sapiens, MDA-MB-231, 72 h) was 430 nM. It also gave a Selectivity index ([9]; IC50 BJ/IC50 MDA-MB-231) of 4.30, a Selectivity index ([9]; IC50 MRC-5/IC50 MDA-MB-231) of 3.95 and a Selectivity index ([9]; IC50 PBMC/IC50 MDA-MB-231) of 3.09. The Selectivity index ([10]; IC50 BJ/IC50 A549) was 0.79, the Selectivity index ([10]; IC50 MRC-5/IC50 A549) was 0.72 and the Selectivity index ([10]; IC50 PBMC/IC50 A549) was 0.57. The IC50 ([11]; Homo sapiens, HSC-3, 72 h) was 690 nM, the Selectivity index ([11]; IC50 BJ/IC50 HSC-3) was 2.68 and the Selectivity index ([11]; IC50 MRC-5/IC50 HSC-3) was 2.46. For the same molecule, the Selectivity index ([11]; IC50 PBMC/IC50 HSC-3) was 1.93, the IC50 ([12]; Homo sapiens, SCC-4, SCC4, 72 h) was 1800 nM and the Selectivity index ([12]; IC50 BJ/IC50 SCC4) was 1.03. For the same molecule, the Selectivity index ([12]; IC50 MRC-5/IC50 SCC4) was 0.94, the Selectivity index ([12]; IC50 PBMC/IC50 SCC4) was 0.74 and the IC50 ([13]; Homo sapiens, PANC-1, 72 h) was 1110 nM. It also gave a Selectivity index ([13]; IC50 BJ/IC50 PANC-1) of 1.67, a Selectivity index ([13]; IC50 MRC-5/IC50 PANC-1) of 1.53 and a Selectivity index ([13]; IC50 PBMC/IC50 PANC-1) of 1.20. The IC50 ([14]; Homo sapiens, HepG2, 72 h) was 320 nM, the Selectivity index ([14]; IC50 BJ/IC50 HepG2) was 5.78 and the Selectivity index ([14]; IC50 MRC-5/IC50 HepG2) was 5.31. For the same molecule, the Selectivity index ([14]; IC50 PBMC/IC50 HepG2) was 4.16, the IC50 ([15]; Homo sapiens, MCF7, MCF-7, 72 h) was 2280 nM and the Selectivity index ([15]; IC50 BJ/IC50 MCF-7) was 0.81. The Selectivity index ([15]; IC50 MRC-5/IC50 MCF-7) was 0.75, the Selectivity index ([15]; IC50 PBMC/IC50 MCF-7) was 0.58 and the IC50 ([16]; Homo sapiens, HCT-116, HCT116, 72 h) was 860 nM. The Selectivity index ([16]; IC50 BJ/IC50 HCT116) was 2.15, the Selectivity index ([16]; IC50 MRC-5/IC50 HCT116) was 1.98 and the Selectivity index ([16]; IC50 PBMC/IC50 HCT116) was 1.55. It also gave an IC50 ([17]; Homo sapiens, Jurkat, 72 h) of 60 nM, a Selectivity index ([17]; IC50 BJ/IC50 Jurkat) of 30.83 and a Selectivity index ([17]; IC50 MRC-5/IC50 Jurkat) of 28.33. The Selectivity index ([17]; IC50 PBMC/IC50 Jurkat) was 22.17, the IC50 ([18]; Homo sapiens, A-375, 72 h) was 160 nM and the Selectivity index ([18]; IC50 BJ/IC50 A-375) was 11.56. It also gave a Selectivity index ([18]; IC50 MRC-5/IC50 A-375) of 10.63, a Selectivity index ([18]; IC50 PBMC/IC50 A-375) of 8.31 and an IC50 ([19]; Homo sapiens, SCC-25, 72 h) of 1440 nM. For the same molecule, the Selectivity index ([19]; IC50 BJ/IC50 SCC-25) was 1.28, the Selectivity index ([19]; IC50 MRC-5/IC50 SCC-25) was 1.18 and the Selectivity index ([19]; IC50 PBMC/IC50 SCC-25) was 0.92. It also gave an IC50 ([20]; Homo sapiens, NB-4, NB4, 72 h) of 90 nM, a Selectivity index ([20]; IC50 BJ/IC50 NB4) of 20.56 and a Selectivity index ([20]; IC50 MRC-5/IC50 NB4) of 18.89. For the same molecule, the Selectivity index ([20]; IC50 PBMC/IC50 NB4) was 14.78, the DNA fragmentation [21] was “also caused DNA fragmentation” and the Selectivity index ([22]; IC50 BJ/IC50 B16-F10) was 4.30. The Selectivity index ([22]; IC50 MRC-5/IC50 B16-F10) was 3.95, the Selectivity index ([22]; IC50 PBMC/IC50 B16-F10) was 3.09 and the IC50 ([22]; Mus musculus, B16-F10, 72 h) was 430 nM. The apoptosis [23] was “also led to apoptosis”, the IC50 [24] was 1850 nM and the IC50 [25] was 1700 nM.
